Experimental data taken from paper PMC5218480 (PLoS ONE, 2017).

Test system: MV-4-11 cells
Test: Gene expression microarray analysis (Affymetrix PrimeView) and GSEA
Assay type: cell-based, human
Design: RFU PODN (11730768_x_at) / Fold change /veh PODN (11730768_x_at) / RFU LINC00158 (11744669_a_at) / Fold change /veh LINC00158 (11744669_a_at) / RFU DUSP10 (11751237_a_at) / Fold change /veh DUSP10 (11751237_a_at) / RFU ID3 (11757404_x_at) / Fold change /veh ID3 (11757404_x_at) / RFU PLEKHG5 (11737974_s_at) / Fold change /veh PLEKHG5 (11737974_s_at) / RFU LRRC4B (11730491_at) / Fold change /veh LRRC4B (11730491_at) / RFU GIMAP4 (11747438_a_at) / Fold change /veh GIMAP4 (11747438_a_at) / RFU KRT8 (11758183_x_at) / Fold change /veh KRT8 (11758183_x_at) / RFU CNN1 (11734310_a_at) / Fold change /veh CNN1 (11734310_a_at) / RFU VPS37D (11726825_at) / Fold change /veh VPS37D (11726825_at) / RFU C10orf10 (11716522_x_at) / Fold change /veh C10orf10 (11716522_x_at) / RFU KIR2DL2 /// KIR2DL4 /// KIR2DL5A /// KIR2DL5B /// KIR2DS1 /// KIR2DS2 /// KIR2DS3 /// KIR2DS4 /// KIR3DL3 /// KIR3DL3 /// KIR3DS1 (11738374_at) / Fold change /veh KIR2DL2 /// KIR2DL4 /// KIR2DL5A /// KIR2DL5B /// KIR2DS1 /// KIR2DS2 /// KIR2DS3 /// KIR2DS4 /// KIR3DL3 /// KIR3DL3 /// KIR3DS1 (11738374_at) / RFU C1QL1 (11718748_at) / Fold change /veh C1QL1 (11718748_at) / RFU TMPRSS4 (11747572_a_at) / Fold change /veh TMPRSS4 (11747572_a_at) / RFU HAMP (11756126_x_at) / Fold change /veh HAMP (11756126_x_at) / RFU RNFT2 (11725882_a_at) / Fold change /veh RNFT2 (11725882_a_at) / RFU NR4A2 (11747474_a_at) / Fold change /veh NR4A2 (11747474_a_at) / RFU ABCC12 (11746883_a_at) / Fold change /veh ABCC12 (11746883_a_at) / RFU TMEM136 (11760407_x_at) / Fold change /veh TMEM136 (11760407_x_at) / RFU CLDN22 /// WWC2 (11732394_at) / Fold change /veh CLDN22 /// WWC2 (11732394_at) / RFU HLA-DPB1 (11760878_x_at) / Fold change /veh HLA-DPB1 (11760878_x_at) / RFU SPINT1 (11716480_a_at) / Fold change /veh SPINT1 (11716480_a_at) / RFU GAP43 (11754022_s_at) / Fold change /veh GAP43 (11754022_s_at) / RFU A4GNT (11735810_at) / Fold change /veh A4GNT (11735810_at) / RFU PRB3 (11715151_x_at) / Fold change /veh PRB3 (11715151_x_at) / RFU TUBB4B (11761932_at) / Fold change /veh TUBB4B (11761932_at) / RFU CAPN14 (11732068_a_at) / Fold change /veh CAPN14 (11732068_a_at) / RFU TMCC2 (11721928_a_at) / Fold change /veh TMCC2 (11721928_a_at) / RFU IRGQ (11745062_a_at) / Fold change /veh IRGQ (11745062_a_at) / RFU FAM174B (11720279_a_at) / Fold change /veh FAM174B (11720279_a_at) / RFU TMPRSS4 (11748680_a_at) / Fold change /veh TMPRSS4 (11748680_a_at) / RFU FAM212B (11763350_a_at) / Fold change /veh FAM212B (11763350_a_at) / RFU PLEKHG5 (11743358_a_at) / Fold change /veh PLEKHG5 (11743358_a_at) / RFU ZSCAN30 (11745921_a_at) / Fold change /veh ZSCAN30 (11745921_a_at) / RFU CMKLR1 (11741424_a_at) / Fold change /veh CMKLR1 (11741424_a_at) / RFU LOC101060620 /// MAPK8IP1 (11723275_at) / Fold change /veh LOC101060620 /// MAPK8IP1 (11723275_at) / RFU SPTSSB (11747773_x_at) / Fold change /veh SPTSSB (11747773_x_at) / RFU PRSS12 (11739890_at) / Fold change /veh PRSS12 (11739890_at) / RFU BIN1 (11741810_x_at) / Fold change /veh BIN1 (11741810_x_at) / RFU WNT11 (11732464_a_at) / Fold change /veh WNT11 (11732464_a_at) / RFU C10orf10 (11716521_a_at) / Fold change /veh C10orf10 (11716521_a_at) / RFU C5orf56 (11738089_at) / Fold change /veh C5orf56 (11738089_at) / RFU CYB561 (11721691_x_at) / Fold change /veh CYB561 (11721691_x_at) / RFU ANKRD19P (11752326_a_at) / Fold change /veh ANKRD19P (11752326_a_at) / RFU OR2T12 /// OR2T33 /// OR2T8 (11738714_s_at) / Fold change /veh OR2T12 /// OR2T33 /// OR2T8 (11738714_s_at) / RFU VCAN (11748164_a_at) / Fold change /veh VCAN (11748164_a_at) / RFU JSRP1 (11732532_at) / Fold change /veh JSRP1 (11732532_at) / RFU KRTAP10-11 (11738290_x_at) / Fold change /veh KRTAP10-11 (11738290_x_at) / RFU MYO3A (11730013_a_at) / Fold change /veh MYO3A (11730013_a_at) / RFU EBF3 (11725865_a_at) / Fold change /veh EBF3 (11725865_a_at) / RFU CAMK2N1 (11719241_x_at) / Fold change /veh CAMK2N1 (11719241_x_at) / RFU C5orf56 (11738088_a_at) / Fold change /veh C5orf56 (11738088_a_at) / RFU OLFML3 (11715873_a_at) / Fold change /veh OLFML3 (11715873_a_at) / RFU LOC100653217 /// NTM (11731650_a_at) / Fold change /veh LOC100653217 /// NTM (11731650_a_at) / RFU MAPK11 (11762145_a_at) / Fold change /veh MAPK11 (11762145_a_at) / RFU FIZ1 (11724087_x_at) / Fold change /veh FIZ1 (11724087_x_at) / RFU OASL (11726364_x_at) / Fold change /veh OASL (11726364_x_at) / RFU SOX15 (11748057_x_at) / Fold change /veh SOX15 (11748057_x_at) / RFU CD79A (11719716_a_at) / Fold change /veh CD79A (11719716_a_at) / RFU HIST1H1D (11736915_at) / Fold change /veh HIST1H1D (11736915_at) / RFU CASKIN2 (11723855_a_at) / Fold change /veh CASKIN2 (11723855_a_at) / RFU LOC730098 (11760151_x_at) / Fold change /veh LOC730098 (11760151_x_at) / RFU OR4N2 (11742367_at) / Fold change /veh OR4N2 (11742367_at) / RFU PRRT2 (11749266_a_at) / Fold change /veh PRRT2 (11749266_a_at) / RFU SNX32 (11753110_a_at) / Fold change /veh SNX32 (11753110_a_at) / RFU CDHR5 (11726645_a_at) / Fold change /veh CDHR5 (11726645_a_at) / RFU RCAN1 (11760418_a_at) / Fold change /veh RCAN1 (11760418_a_at) / RFU FAM167A (11723789_a_at) / Fold change /veh FAM167A (11723789_a_at) / RFU FAM26E (11764081_at) / Fold change /veh FAM26E (11764081_at) / RFU ISYNA1 (11749810_s_at) / Fold change /veh ISYNA1 (11749810_s_at) / RFU ACY1 (11761880_at) / Fold change /veh ACY1 (11761880_at) / RFU 11764098_at / Fold change /veh 11764098_at / RFU SAMD14 (11745864_x_at) / Fold change /veh SAMD14 (11745864_x_at) / RFU NPB (11741838_a_at) / Fold change /veh NPB (11741838_a_at) / RFU TMPRSS6 (11731388_a_at) / Fold change /veh TMPRSS6 (11731388_a_at) / RFU KRTAP10-2 (11738614_at) / Fold change /veh KRTAP10-2 (11738614_at) / RFU ARHGAP8 /// PRR5-ARHGAP8 (11727945_x_at) / Fold change /veh ARHGAP8 /// PRR5-ARHGAP8 (11727945_x_at) / RFU KRTAP5-7 /// NADSYN1 (11734609_at) / Fold change /veh KRTAP5-7 /// NADSYN1 (11734609_at) / RFU RASL12 (11751679_a_at) / Fold change /veh RASL12 (11751679_a_at) / RFU CDKN2B (11736163_a_at) / Fold change /veh CDKN2B (11736163_a_at) / RFU PRF1 (11729649_at) / Fold change /veh PRF1 (11729649_at) / RFU, ZNF638 /// ZNF638-IT1 / Fold change vs veh, ZNF638 /// ZNF638-IT1 / RFU, PANK3 / Fold change vs veh, PANK3 / RFU, SH3YL1 / Fold change vs veh, SH3YL1 / RFU, ZEB2 / Fold change vs veh, ZEB2 / RFU, NRIP1 / Fold change vs veh, NRIP1 / RFU, PTTG1IP / Fold change vs veh, PTTG1IP / RFU, CAPN2 / Fold change vs veh, CAPN2 / RFU, MED14 / Fold change vs veh, MED14 / RFU, SNORA58 / Fold change vs veh, SNORA58 / RFU, C1orf63 / Fold change vs veh, C1orf63 / RFU, LRRFIP1 / Fold change vs veh, LRRFIP1 / RFU, NDUFAF7 / Fold change vs veh, NDUFAF7 / RFU, SLC12A2 / Fold change vs veh, SLC12A2 / RFU, IBTK / Fold change vs veh, IBTK / RFU, ESF1 / Fold change vs veh, ESF1 / Fold change vs veh, TMEM50B / RFU, TAOK1 / Fold change vs veh, TAOK1 / RFU, ACBD3 / Fold change vs veh, ACBD3 / RFU, TMA16 / Fold change vs veh, TMA16 / RFU, RWDD3 / Fold change vs veh, RWDD3 / RFU, BCAT1 / Fold change vs veh, BCAT1 / RFU, EDEM3 / Fold change vs veh, EDEM3 / RFU, TMEM33 / Fold change vs veh, TMEM33 / RFU, WDR75 / Fold change vs veh, WDR75 / RFU, AHCTF1 / Fold change vs veh, AHCTF1 / RFU, TFRC / Fold change vs veh, TFRC / RFU, ZDHHC17 / Fold change vs veh, ZDHHC17 / RFU, NOM1 / Fold change vs veh, NOM1 / RFU, ARL8B / Fold change vs veh, ARL8B / RFU, ZBTB11 / Fold change vs veh, ZBTB11 / RFU, TAMM41 / Fold change vs veh, TAMM41 / RFU, KIAA1704 /// LOC100996395 / Fold change vs veh, KIAA1704 /// LOC100996395 / RFU, ING1 / Fold change vs veh, ING1 / RFU, TRMT61B / Fold change vs veh, TRMT61B / RFU, FUBP3 / Fold change vs veh, FUBP3 / RFU, TP53 / Fold change vs veh, TP53 / RFU, TNKS2 / Fold change vs veh, TNKS2 / RFU, ZFP14 / Fold change vs veh, ZFP14 / RFU, ACTR2 / Fold change vs veh, ACTR2 / RFU, PPP3R1 / Fold change vs veh, PPP3R1 / RFU, PIK3R1 / Fold change vs veh, PIK3R1 / RFU, HNRNPA1 / Fold change vs veh, HNRNPA1 / RFU, RNF170 / Fold change vs veh, RNF170 / RFU, ZNF28 / Fold change vs veh, ZNF28 / RFU, RNGTT / Fold change vs veh, RNGTT / RFU, OGT / Fold change vs veh, OGT / RFU, BRD1 / Fold change vs veh, BRD1 / RFU, MARS / Fold change vs veh, MARS / RFU, ZNF655 / Fold change vs veh, ZNF655 / RFU, FAHD1 / Fold change vs veh, FAHD1 / RFU, BDP1 / Fold change vs veh, BDP1 / RFU, LRRCC1 / Fold change vs veh, LRRCC1 / RFU, ARID1A / Fold change vs veh, ARID1A / RFU, ZNF146 / Fold change vs veh, ZNF146 / RFU, ZNF330 / Fold change vs veh, ZNF330 / RFU, GPN3 / Fold change vs veh, GPN3 / RFU, C9orf123 / Fold change vs veh, C9orf123 / RFU, N4BP2L2 / Fold change vs veh, N4BP2L2 / RFU, ARFIP1 / Fold change vs veh, ARFIP1 / RFU, FAM179B / Fold change vs veh, FAM179B / RFU, BCL10 / Fold change vs veh, BCL10 / RFU, UHRF1BP1L / Fold change vs veh, UHRF1BP1L / RFU, BET1 / Fold change vs veh, BET1 / RFU, CNOT2 / Fold change vs veh, CNOT2 / RFU, ZNF268 / Fold change vs veh, ZNF268 / Fold change vs veh, ZNF507 / RFU, DGCR2 / Fold change vs veh, DGCR2 / RFU, WDSUB1 / Fold change vs veh, WDSUB1 / Fold change vs veh, HSP90B1 /// MIR3652 / RFU, ADSS / Fold change vs veh, ADSS / RFU, GK / Fold change vs veh, GK / RFU, ZNF148 / Fold change vs veh, ZNF148 / RFU, TAF9 / Fold change vs veh, TAF9 / RFU, SLC1A5 / Fold change vs veh, SLC1A5 / RFU, SLMO2 / Fold change vs veh, SLMO2 / RFU, ABCC4 / Fold change vs veh, ABCC4 / RFU, LOC101060439 /// RAP1B / Fold change vs veh, LOC101060439 /// RAP1B / RFU, RFX7 / Fold change vs veh, RFX7 / RFU, GTPBP10 / Fold change vs veh, GTPBP10 / RFU, CNEP1R1 / Fold change vs veh, CNEP1R1 / RFU, BIVM-ERCC5 /// ERCC5 / Fold change vs veh, BIVM-ERCC5 /// ERCC5 / RFU, ILF3 / Fold change vs veh, ILF3 / RFU 11762660_at / Fold change /veh 11762660_at / RFU VCAN (11757783_s_at) / Fold change /veh VCAN (11757783_s_at) / RFU DDX43 (11728927_at) / Fold change /veh DDX43 (11728927_at) / RFU KRT8 (11758188_x_at) / Fold change /veh KRT8 (11758188_x_at) / RFU NKD1 (11759106_at) / Fold change /veh NKD1 (11759106_at) / RFU SRD5A1 (11742802_a_at) / Fold change /veh SRD5A1 (11742802_a_at) / RFU TPSAB1 /// TPSB2 (11721975_s_at) / Fold change /veh TPSAB1 /// TPSB2 (11721975_s_at) / RFU GSTM3 (11746129_a_at) / Fold change /veh GSTM3 (11746129_a_at) / RFU IL23R (11737362_x_at) / Fold change /veh IL23R (11737362_x_at) / RFU TMEM51 (11727254_a_at) / Fold change /veh TMEM51 (11727254_a_at) / RFU PIWIL2 (11732686_x_at) / Fold change /veh PIWIL2 (11732686_x_at) / RFU ORM1 (11744905_x_at) / Fold change /veh ORM1 (11744905_x_at) / RFU CCDC152 (11743942_at) / Fold change /veh CCDC152 (11743942_at) / RFU ECM1 (11717891_a_at) / Fold change /veh ECM1 (11717891_a_at) / RFU IL23R (11748794_a_at) / Fold change /veh IL23R (11748794_a_at) / RFU TNFAIP8L3 (11732012_x_at) / Fold change /veh TNFAIP8L3 (11732012_x_at) / RFU MBOAT4 (11741988_at) / Fold change /veh MBOAT4 (11741988_at) / RFU 11764193_at / Fold change /veh 11764193_at / RFU TMEM53 (11763286_at) / Fold change /veh TMEM53 (11763286_at) / RFU MAGEB2 (11727129_at) / Fold change /veh MAGEB2 (11727129_at) / RFU TMEM200A (11744735_a_at) / Fold change /veh TMEM200A (11744735_a_at) / RFU CCDC152 (11751479_a_at) / Fold change /veh CCDC152 (11751479_a_at) / RFU FAM211A (11726209_a_at) / Fold change /veh FAM211A (11726209_a_at) / RFU RGS16 (11746705_a_at) / Fold change /veh RGS16 (11746705_a_at) / RFU VCAN (11755009_s_at) / Fold change /veh VCAN (11755009_s_at) / RFU RHOB (11743442_s_at) / Fold change /veh RHOB (11743442_s_at) / RFU RGS16 (11720943_a_at) / Fold change /veh RGS16 (11720943_a_at) / RFU RGS16 (11720944_at) / Fold change /veh RGS16 (11720944_at) / RFU, VPS4B / Fold change vs veh, VPS4B / RFU, CREB1 / Fold change vs veh, CREB1 / RFU, DNAJC13 / Fold change vs veh, DNAJC13 / RFU, GNAQ / Fold change vs veh, GNAQ / RFU, CDK5R1 / Fold change vs veh, CDK5R1 / RFU, ZRANB3 / Fold change vs veh, ZRANB3 / RFU, CUL4A / Fold change vs veh, CUL4A / RFU, CCNY / Fold change vs veh, CCNY / RFU, UFL1 / Fold change vs veh, UFL1 / RFU, COG3 / Fold change vs veh, COG3 / RFU, DIAPH2 / Fold change vs veh, DIAPH2 / RFU, SKA2 / Fold change vs veh, SKA2 / RFU, AFF3 / Fold change vs veh, AFF3 / RFU, LMF1 / Fold change vs veh, LMF1 / RFU, IPO11 / Fold change vs veh, IPO11 / RFU, DFFB / Fold change vs veh, DFFB / RFU, FOXP1 / Fold change vs veh, FOXP1 / RFU, CARD8 / Fold change vs veh, CARD8 / RFU, STRN3 / Fold change vs veh, STRN3 / RFU, ADK / Fold change vs veh, ADK / RFU, RASSF2 / Fold change vs veh, RASSF2 / RFU, WIPF1 / Fold change vs veh, WIPF1 / RFU, LARP1B / Fold change vs veh, LARP1B / RFU, RASA1 / Fold change vs veh, RASA1 / RFU, RB1 / Fold change vs veh, RB1 / RFU, PPFIA1 / Fold change vs veh, PPFIA1 / RFU, MAT2A / Fold change vs veh, MAT2A / RFU, CCT5 / Fold change vs veh, CCT5 / RFU, WDR92 / Fold change vs veh, WDR92 / RFU, CUX1 / Fold change vs veh, CUX1 / RFU, TTC7A / Fold change vs veh, TTC7A / RFU, TMEM135 / Fold change vs veh, TMEM135 / RFU, DEPTOR / Fold change vs veh, DEPTOR / RFU, CPM / Fold change vs veh, CPM / RFU, DNAJB6 / Fold change vs veh, DNAJB6 / RFU, CACNA2D3 / Fold change vs veh, CACNA2D3 / RFU, DTX4 / Fold change vs veh, DTX4 / RFU, TFCP2 / Fold change vs veh, TFCP2 / RFU, GMCL1 /// GMCL1P1 / Fold change vs veh, GMCL1 /// GMCL1P1 / RFU, AEBP2 / Fold change vs veh, AEBP2 / RFU, SNHG1 /// SNORD22 /// SNORD25 /// SNORD26 /// SNORD27 /// SNORD28 /// SNORD29 /// SNORD31 / Fold change vs veh, SNHG1 /// SNORD22 /// SNORD25 /// SNORD26 /// SNORD27 /// SNORD28 /// SNORD29 /// SNORD31 / Fold change (Aza/veh), C12orf56 (ProbeSet 11735607_a_at) / Fold change (ACY-1035/veh), C12orf56 (ProbeSet 11735607_a_at) / Fold change (Aza/veh), FGFR1OP (ProbeSet 11751329_s_at) / Fold change (ACY-1035/veh), FGFR1OP (ProbeSet 11751329_s_at) / Fold change (Aza/veh), VPS36 (ProbeSet 11739960_a_at) / Fold change (ACY-1035/veh), VPS36 (ProbeSet 11739960_a_at) / RFU SYPL1 (11715823_x_at) / Fold change /veh SYPL1 (11715823_x_at) / RFU IGFBP7 (11715501_s_at) / Fold change /veh IGFBP7 (11715501_s_at) / RFU REEP3 (11722064_at) / Fold change /veh REEP3 (11722064_at) / RFU IGLL1 (11728026_x_at) / Fold change /veh IGLL1 (11728026_x_at): dose or concentration left out as unconfirmed
Conditions: MV-4-11 cells, 48 hours

Question: For `Nc1ncn([C@@H]2O[C@H](CO)[C@@H](O)[C@H]2O)c(=O)n1` [azacitidine], which “RFU RGS16 (11720943_a_at)” value is on record?
Answer: Its value is 102.77 RFU.
